Laboratory results published in patent US20130197032A1, “[…] COMPOUNDS FOR THE TREATMENT OF NEUROLOGICAL AND […] DISORDERS” (A. CARLSSON RESEARCH AB, priority 2010, published 2013).
Each block holds one compound with its values, some of them ahead of it.

Columns and labels:
human alpha1A receptor = target: T1, human alpha1A receptor (Homo sapiens, UniProt P35348); test: R-SAT assay α1A; type: cell-based; conditions: Table 3, α1A; percent response of reference Phenylephrine
T1 construct: expressed in transfected cells; host or cells: NIH/3T3 cells, transient transfection, pSI vector
T1 sequence (P35348 1-466): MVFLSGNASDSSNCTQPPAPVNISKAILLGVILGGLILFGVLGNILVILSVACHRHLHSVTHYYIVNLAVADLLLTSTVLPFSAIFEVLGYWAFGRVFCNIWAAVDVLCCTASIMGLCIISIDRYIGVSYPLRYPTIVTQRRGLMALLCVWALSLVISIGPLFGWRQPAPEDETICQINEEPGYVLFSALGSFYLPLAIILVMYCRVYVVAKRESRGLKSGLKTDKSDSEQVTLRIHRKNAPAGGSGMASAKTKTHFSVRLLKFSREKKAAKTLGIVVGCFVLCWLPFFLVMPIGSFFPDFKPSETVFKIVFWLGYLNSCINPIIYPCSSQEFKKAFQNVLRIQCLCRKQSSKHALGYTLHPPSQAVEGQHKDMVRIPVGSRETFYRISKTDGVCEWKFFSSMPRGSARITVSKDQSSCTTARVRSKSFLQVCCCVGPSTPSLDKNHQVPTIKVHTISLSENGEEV

human alpha1B receptor = target: T2, human alpha1B receptor (Homo sapiens, UniProt P35368); test: R-SAT assay α1B; type: cell-based; conditions: Table 3, α1B; percent response of reference Phenylephrine
T2 construct: expressed in transfected cells; host or cells: NIH/3T3 cells, transient transfection, pSI vector
T2 sequence (P35368 1-520): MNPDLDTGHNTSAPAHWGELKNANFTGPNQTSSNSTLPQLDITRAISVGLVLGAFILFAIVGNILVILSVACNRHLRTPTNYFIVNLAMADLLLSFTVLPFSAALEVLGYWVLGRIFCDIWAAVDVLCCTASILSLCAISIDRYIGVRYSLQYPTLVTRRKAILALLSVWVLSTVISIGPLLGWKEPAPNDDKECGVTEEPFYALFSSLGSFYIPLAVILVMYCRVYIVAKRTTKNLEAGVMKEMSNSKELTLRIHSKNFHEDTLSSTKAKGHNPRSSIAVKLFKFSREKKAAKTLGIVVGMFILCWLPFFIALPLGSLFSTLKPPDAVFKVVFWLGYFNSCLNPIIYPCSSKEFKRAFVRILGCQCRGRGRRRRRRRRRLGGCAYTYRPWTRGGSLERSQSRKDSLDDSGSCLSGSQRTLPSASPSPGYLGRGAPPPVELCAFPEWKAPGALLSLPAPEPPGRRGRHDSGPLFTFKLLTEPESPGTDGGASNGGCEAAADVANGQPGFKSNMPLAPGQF

human 5-HT1B receptor = human 5-HT1B receptor (Homo sapiens, UniProt P28222); test: R-SAT assay 5-HT1B; type: cell-based
Sequence of human 5-HT1B receptor (P28222 whole entry): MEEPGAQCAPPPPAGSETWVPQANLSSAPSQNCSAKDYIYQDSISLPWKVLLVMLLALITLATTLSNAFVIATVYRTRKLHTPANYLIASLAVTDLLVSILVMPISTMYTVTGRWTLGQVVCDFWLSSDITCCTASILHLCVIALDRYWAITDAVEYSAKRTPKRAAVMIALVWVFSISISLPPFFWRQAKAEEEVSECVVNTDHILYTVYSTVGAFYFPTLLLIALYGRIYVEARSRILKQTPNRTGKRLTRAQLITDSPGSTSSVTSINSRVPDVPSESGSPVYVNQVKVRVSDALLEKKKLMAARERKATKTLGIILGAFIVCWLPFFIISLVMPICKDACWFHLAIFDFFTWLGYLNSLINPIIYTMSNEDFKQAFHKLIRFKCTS

human 5-HT1D receptor = target: T3, human 5-HT1D receptor (Homo sapiens, UniProt P28221); test: R-SAT assay 5-HT1D; type: cell-based; conditions: Table 3, 5-HT1D; percent response of reference 5-CT
T3 construct: expressed in transfected cells; host or cells: NIH/3T3
T3 sequence (P28221 whole entry): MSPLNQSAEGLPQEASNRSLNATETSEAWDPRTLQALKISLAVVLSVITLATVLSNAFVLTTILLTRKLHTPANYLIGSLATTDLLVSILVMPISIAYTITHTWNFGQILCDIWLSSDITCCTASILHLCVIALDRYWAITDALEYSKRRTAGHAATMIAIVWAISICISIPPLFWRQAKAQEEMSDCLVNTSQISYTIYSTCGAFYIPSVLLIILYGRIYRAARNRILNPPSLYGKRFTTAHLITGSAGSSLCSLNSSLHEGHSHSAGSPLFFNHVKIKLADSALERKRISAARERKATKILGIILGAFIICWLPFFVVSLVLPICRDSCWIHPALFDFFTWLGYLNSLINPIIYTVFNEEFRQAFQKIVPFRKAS

[1] = target: T4, human 5-HT2C(vgv) receptor (Homo sapiens, UniProt P28335, I156V/I160V/N158G); test: R-SAT assay 5-HT2C; type: cell-based; conditions: Table 3, 5-HT2C; percent response of reference 5-CT
T4 construct: expressed in transfected cells; host or cells: NIH/3T3
T4 sequence (P28335 33-458 I156V/N158G/I160V): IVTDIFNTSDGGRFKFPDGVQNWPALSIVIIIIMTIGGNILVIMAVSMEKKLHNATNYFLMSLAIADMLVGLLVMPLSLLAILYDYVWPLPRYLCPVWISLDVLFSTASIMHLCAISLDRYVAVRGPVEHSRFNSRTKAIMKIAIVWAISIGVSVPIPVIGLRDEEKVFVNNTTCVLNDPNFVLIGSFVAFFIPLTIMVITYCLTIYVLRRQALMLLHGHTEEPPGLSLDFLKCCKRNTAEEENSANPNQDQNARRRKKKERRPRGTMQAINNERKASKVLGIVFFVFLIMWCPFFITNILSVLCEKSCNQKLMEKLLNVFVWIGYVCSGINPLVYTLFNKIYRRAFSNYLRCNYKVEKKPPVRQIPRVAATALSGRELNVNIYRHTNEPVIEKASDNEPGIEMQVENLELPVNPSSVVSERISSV

human 5-HT6 receptor = human 5-HT6 receptor (Homo sapiens, UniProt P50406); test: R-SAT assay 5-HT6; type: cell-based
Sequence of human 5-HT6 receptor (P50406 whole entry): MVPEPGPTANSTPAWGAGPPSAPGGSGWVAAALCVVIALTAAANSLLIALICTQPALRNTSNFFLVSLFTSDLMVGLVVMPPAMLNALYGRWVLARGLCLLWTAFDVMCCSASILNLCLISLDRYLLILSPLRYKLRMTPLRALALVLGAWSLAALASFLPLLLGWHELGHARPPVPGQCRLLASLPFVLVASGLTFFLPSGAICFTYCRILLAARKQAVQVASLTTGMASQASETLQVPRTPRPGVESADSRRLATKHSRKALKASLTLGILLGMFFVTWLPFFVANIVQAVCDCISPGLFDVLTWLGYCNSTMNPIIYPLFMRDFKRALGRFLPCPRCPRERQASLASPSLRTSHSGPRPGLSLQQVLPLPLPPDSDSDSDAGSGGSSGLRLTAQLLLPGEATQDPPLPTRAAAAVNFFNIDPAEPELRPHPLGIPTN

human 5-HT7 receptor = target: T5, human 5-HT7 receptor (Homo sapiens, UniProt P34969); test: R-SAT assay 5-HT7; type: cell-based; conditions: Table 3, 5-HT7; percent response of reference 5-CT
T5 construct: expressed in transfected cells; host or cells: NIH/3T3
T5 sequence (P34969 whole entry): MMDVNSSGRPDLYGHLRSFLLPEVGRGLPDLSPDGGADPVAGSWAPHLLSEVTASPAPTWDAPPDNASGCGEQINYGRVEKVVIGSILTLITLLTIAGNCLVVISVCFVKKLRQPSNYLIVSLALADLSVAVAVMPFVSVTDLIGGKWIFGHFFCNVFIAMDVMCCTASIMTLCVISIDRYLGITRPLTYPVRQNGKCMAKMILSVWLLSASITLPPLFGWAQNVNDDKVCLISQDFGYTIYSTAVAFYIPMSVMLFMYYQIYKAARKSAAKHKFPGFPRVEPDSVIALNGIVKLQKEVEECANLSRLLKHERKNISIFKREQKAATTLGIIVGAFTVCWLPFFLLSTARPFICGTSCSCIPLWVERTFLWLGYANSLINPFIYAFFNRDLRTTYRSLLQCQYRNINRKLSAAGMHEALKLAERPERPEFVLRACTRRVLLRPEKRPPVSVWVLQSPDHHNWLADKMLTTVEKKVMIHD

human 5-HT2A receptors [2] = target: T6, human 5-HT2A receptors (Homo sapiens, UniProt P28223); test: Phosphatidyl inositol (PI) hydrolysis assay at 5-HT2A; type: cell-based; design: expressed in transfected cells; conditions: mean ± SEM
T6 sequence (P28223 whole entry): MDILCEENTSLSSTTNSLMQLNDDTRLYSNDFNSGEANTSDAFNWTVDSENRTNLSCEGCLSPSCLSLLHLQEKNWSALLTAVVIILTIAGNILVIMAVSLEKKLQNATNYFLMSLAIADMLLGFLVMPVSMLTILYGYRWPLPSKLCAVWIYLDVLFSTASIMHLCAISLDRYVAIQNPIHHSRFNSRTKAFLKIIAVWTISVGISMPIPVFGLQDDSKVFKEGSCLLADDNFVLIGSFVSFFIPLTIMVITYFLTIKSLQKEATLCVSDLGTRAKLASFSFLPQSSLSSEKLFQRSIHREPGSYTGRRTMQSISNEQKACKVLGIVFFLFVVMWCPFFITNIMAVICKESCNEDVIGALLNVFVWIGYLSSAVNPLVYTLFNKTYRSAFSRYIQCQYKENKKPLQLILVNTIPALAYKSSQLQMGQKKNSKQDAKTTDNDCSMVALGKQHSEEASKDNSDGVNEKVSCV
Procedure: After lysing the cells with 50 μl of 0.1M formic acid, 20 μl each cell lysate was mixed with 80 μl (1 mg) RNA Binding YSi-SPA beads (GE Healthcare, Chalfont St. Giles, UK) on PICO plates (PerkinElmer) and counted on a TopCount (Packard).
Each curve is representative of at least three or more independent experiments.

human 5-HT2A receptors [3] = target: T6, human 5-HT2A receptors; test: R-SAT functional assay at 5-HT2A; type: cell-based; design: expressed in transfected cells; host or cells: NIH-3T3
5-HT2B receptors = 5-HT2B receptors (Homo sapiens, UniProt P41595); test: R-SAT assay 5-HT2B; type: cell-based; design: expressed in transfected cells; host or cells: NIH/3T3
Sequence of 5-HT2B receptors (P41595 whole entry): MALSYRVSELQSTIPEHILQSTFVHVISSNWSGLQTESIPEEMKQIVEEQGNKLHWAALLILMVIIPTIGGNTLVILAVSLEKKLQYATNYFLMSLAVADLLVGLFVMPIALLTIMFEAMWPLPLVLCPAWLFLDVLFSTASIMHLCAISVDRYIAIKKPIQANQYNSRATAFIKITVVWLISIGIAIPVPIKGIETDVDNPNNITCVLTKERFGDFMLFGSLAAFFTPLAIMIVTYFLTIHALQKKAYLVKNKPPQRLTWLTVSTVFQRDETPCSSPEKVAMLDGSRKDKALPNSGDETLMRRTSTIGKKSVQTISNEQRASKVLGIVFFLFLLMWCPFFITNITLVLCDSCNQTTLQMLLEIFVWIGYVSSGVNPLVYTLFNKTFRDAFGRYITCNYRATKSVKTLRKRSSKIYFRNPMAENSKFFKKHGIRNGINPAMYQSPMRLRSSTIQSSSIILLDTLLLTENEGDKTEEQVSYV

human 5-HT2A receptors [4] = target: T6, human 5-HT2A receptors; test: BRET2 beta-arrestin-2 recruitment assay at 5-HT2A; type: cell-based; design: expressed in transfected cells; host or cells: HEK-293T; conditions: mean ± SEM
Procedure: (§1) BRET-2 signals were measured using the multiplate reader Mithras 940LB (Berthold Technologies, Bad Wildbad, Germany) and were calculated as the ratio between the Renilla luciferase emission and the GFP2 emission corrected by the background emissions of non-transfected cells.

human D3 receptor = target: T7, human D3 receptor (Homo sapiens, UniProt P35462); test: R-SAT assay D3; type: cell-based; conditions: Table 3, D3; percent response of reference Pergolide
T7 construct: expressed in transfected cells
T7 sequence (P35462 whole entry): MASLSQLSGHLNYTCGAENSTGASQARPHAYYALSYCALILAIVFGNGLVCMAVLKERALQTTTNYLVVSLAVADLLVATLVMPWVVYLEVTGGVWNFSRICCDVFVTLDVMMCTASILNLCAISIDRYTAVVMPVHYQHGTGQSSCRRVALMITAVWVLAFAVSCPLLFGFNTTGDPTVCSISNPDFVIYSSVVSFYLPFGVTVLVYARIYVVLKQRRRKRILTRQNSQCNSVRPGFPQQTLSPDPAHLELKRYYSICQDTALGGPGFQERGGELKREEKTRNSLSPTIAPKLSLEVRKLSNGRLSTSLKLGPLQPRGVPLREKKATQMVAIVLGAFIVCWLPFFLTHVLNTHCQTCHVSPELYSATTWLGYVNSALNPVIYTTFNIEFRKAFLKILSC

[5] = target: human D4 (variant 4.2) receptor (Homo sapiens, UniProt P21917, DEL265-296); type: cell-based
Sequence of human D4 (variant 4.2) receptor (P21917 with tags, fused parts or gaps DEL265-296): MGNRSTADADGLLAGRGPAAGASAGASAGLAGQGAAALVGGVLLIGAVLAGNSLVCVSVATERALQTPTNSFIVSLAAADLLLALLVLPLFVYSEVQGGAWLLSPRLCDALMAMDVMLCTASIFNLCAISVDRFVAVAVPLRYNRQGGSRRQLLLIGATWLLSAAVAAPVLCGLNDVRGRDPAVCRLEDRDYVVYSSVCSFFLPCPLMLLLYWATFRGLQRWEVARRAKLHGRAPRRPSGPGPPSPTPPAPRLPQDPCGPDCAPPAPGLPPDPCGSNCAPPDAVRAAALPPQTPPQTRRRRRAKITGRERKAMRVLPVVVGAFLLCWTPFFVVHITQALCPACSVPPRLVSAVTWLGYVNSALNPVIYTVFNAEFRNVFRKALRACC

D2 receptors [6] = target: T8, D2 receptors (Homo sapiens, UniProt P14416); test: GTPγS binding assay at D2; type: biochemical; design: expressed in transfected cells; conditions: percent response of reference ligand dopamine; mean ± SEM
T8 sequence (P14416 1-414 isoform P14416-2): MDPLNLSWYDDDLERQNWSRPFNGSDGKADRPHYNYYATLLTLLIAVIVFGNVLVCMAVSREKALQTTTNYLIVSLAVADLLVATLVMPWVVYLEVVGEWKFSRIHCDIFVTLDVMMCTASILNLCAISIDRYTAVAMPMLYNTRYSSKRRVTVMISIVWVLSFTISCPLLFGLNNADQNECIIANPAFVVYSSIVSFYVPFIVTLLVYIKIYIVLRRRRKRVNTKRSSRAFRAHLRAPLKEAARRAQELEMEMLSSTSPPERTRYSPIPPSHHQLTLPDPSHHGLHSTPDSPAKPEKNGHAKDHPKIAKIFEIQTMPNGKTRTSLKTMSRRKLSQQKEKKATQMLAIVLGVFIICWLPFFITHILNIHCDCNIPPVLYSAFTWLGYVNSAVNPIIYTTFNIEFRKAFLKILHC
Procedure: Cells were not centrifuged following cell scraping, but were collected directly into the ice-cold nitrogen cavitation chamber.
50 μl/well Wheat-Germ Agglutinin SPA beads (Perkin Elmer, Shelton, Conn.) were added to the plates and the plates incubated for 1 hour. The plates were then centrifuged at 1,000×g for 10 minutes and read on a Top Count NXT (Perkin Elmer, Shelton, Conn.).
To relate the results observed in R-SAT™ to a more conventional assay system, these ligands were also tested for the ability to induce GTPγS binding through D2 receptors.

D2 receptors [7] = target: T8, D2 receptors; test: R-SAT functional assay at D2; type: cell-based; design: expressed in transfected cells; host or cells: NIH-3T3
D2 receptors [8] = target: T8, D2 receptors; test: BRET2 beta-arrestin-2 recruitment assay at D2; type: cell-based; design: expressed in transfected cells; host or cells: HEK-293T
Procedure: as §1
Each curve is representative of two to three independent experiments.

human D1 receptor = target: T9, human D1 receptor (Homo sapiens, UniProt P21728); test: R-SAT assay D1; type: cell-based; conditions: Table 3, D1; percent response of reference SKF 38393
T9 construct: expressed in transfected cells; host or cells: NIH-3T3 (inferred: R-SAT host; D1 is in neither method list of b200)
T9 sequence (P21728 whole entry): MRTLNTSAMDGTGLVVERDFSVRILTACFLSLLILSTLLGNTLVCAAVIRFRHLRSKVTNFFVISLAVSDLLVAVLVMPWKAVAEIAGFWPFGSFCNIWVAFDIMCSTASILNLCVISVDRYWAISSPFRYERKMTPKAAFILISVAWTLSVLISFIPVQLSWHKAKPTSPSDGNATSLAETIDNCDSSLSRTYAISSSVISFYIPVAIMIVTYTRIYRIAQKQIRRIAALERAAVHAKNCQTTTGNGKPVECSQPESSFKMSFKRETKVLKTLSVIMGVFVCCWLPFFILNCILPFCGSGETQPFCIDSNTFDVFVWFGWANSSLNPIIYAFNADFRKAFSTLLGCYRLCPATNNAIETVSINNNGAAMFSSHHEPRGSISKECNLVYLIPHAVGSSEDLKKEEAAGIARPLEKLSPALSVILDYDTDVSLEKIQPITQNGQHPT

human alpha2C receptor = target: T10, human alpha2C receptor (Homo sapiens, UniProt P18825); test: R-SAT assay α2C; type: cell-based; conditions: Table 3, α2C; percent response of reference UK 14,306
T10 construct: expressed in transfected cells; host or cells: NIH/3T3 cells, transient transfection, pSI vector
T10 sequence (P18825 1-462): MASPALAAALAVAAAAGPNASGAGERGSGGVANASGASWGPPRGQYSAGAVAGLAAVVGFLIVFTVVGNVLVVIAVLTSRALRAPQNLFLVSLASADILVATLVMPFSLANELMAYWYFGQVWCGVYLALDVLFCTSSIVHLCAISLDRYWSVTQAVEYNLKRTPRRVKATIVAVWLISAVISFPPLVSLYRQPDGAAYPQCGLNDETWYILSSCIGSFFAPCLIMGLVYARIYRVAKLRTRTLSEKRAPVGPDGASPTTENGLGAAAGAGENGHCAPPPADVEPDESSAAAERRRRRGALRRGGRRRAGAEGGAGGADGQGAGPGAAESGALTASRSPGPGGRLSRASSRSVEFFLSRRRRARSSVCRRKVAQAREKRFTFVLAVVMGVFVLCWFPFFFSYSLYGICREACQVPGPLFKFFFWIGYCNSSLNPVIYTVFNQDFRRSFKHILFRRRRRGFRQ

human M2 receptor = target: T11, human M2 receptor (Homo sapiens, UniProt P08172); test: R-SAT assay M2; type: cell-based; conditions: Table 3, M2; percent response of reference Carbachol
T11 construct: expressed in transfected cells; host or cells: NIH/3T3
T11 sequence (P08172 1-466): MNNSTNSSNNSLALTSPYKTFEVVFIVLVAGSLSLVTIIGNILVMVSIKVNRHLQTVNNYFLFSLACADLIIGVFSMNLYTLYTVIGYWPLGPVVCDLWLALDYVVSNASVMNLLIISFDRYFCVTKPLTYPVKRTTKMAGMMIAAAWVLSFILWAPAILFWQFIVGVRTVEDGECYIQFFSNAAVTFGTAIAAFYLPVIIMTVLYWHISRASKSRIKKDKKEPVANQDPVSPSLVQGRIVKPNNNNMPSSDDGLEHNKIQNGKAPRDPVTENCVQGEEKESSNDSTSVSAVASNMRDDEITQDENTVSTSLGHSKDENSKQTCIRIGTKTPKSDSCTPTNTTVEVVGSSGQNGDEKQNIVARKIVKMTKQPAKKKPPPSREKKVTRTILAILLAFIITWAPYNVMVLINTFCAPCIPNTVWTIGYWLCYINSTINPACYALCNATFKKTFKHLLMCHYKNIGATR

human M4 receptor = target: T12, human M4 receptor (Homo sapiens, UniProt P08173); test: R-SAT assay M4; type: cell-based; conditions: Table 3, M4; percent response of reference Carbachol
T12 construct: expressed in transfected cells; host or cells: NIH/3T3
T12 sequence (P08173 1-479): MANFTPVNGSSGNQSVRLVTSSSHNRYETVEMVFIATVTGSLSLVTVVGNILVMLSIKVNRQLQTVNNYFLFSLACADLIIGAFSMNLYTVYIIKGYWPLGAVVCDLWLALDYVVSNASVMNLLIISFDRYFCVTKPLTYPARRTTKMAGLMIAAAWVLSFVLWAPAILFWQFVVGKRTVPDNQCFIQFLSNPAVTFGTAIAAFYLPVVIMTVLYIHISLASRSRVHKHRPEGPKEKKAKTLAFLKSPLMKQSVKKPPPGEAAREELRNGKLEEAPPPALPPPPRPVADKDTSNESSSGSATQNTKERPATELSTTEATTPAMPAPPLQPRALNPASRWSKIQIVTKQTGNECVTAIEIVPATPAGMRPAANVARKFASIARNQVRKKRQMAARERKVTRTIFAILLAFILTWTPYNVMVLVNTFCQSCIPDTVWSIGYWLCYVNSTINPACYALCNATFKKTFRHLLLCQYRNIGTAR

human M5 receptor = target: T13, human M5 receptor (Homo sapiens, UniProt P08912); test: R-SAT assay M5; type: cell-based; conditions: Table 3, M5; percent response of reference Carbachol
T13 construct: expressed in transfected cells; host or cells: NIH/3T3 cells, transient transfection, pSI vector
T13 sequence (P08912 whole entry): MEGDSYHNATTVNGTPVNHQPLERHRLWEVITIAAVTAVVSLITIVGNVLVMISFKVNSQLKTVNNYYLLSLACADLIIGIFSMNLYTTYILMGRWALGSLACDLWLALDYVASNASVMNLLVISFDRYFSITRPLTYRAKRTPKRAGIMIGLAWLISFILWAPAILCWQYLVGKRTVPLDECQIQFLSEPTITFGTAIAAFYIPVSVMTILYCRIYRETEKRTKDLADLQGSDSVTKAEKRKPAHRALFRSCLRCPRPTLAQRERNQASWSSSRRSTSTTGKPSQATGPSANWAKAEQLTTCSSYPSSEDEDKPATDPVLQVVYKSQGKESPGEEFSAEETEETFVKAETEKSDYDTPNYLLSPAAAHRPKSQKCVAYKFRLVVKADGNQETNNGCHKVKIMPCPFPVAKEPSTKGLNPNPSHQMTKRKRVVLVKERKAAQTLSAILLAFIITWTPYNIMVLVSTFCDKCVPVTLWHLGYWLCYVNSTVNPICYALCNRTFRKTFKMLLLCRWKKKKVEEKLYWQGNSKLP

[9] = percent response of reference ligand 5-HT

Structure (SMILES): NCCc1c[nH]c2ccc(C(N)=O)cc12 [5-CT, 5-carboxamidotryptamine, reference compound]
EC50 (human 5-HT1B receptor): 6.31 nM
Eff (%) (human 5-HT1B receptor; Table 3, 5-HT1B, percent response of reference 5-CT): 100%
Eff (%) (human 5-HT1D receptor): 100%
Eff (%) [1]: 100%
EC50 (human 5-HT6 receptor): 251 nM
Eff (%) (human 5-HT6 receptor; Table 3, 5-HT6, percent response of reference 5-CT): 100%
Eff (%) (human 5-HT7 receptor): 100%
EC50 (human 5-HT2A receptors [2]; negative logarithm of EC50 in molar (M), HEK 293T cells, read-out: PI Hydrolysis pEC50 (converted)): 2.51e-07 M
PI Hydrolysis Eff (%) (human 5-HT2A receptors [2]; [9]): 92 ± 4%
EC50 (human 5-HT2A receptors [3]; Table 1, negative logarithm of EC50 in molar (M), NIH3T3 cells, mean ± SEM, read-out: R-SAT pEC50 (converted)): 6.31e-08 M
R-SAT Eff(%) (human 5-HT2A receptors [3]; Table 1, percent response of reference ligand 5-CT, mean ± SEM): 100 ± 0%
EC50 (human 5-HT2A receptors [3]; Table 3, 5-HT2A, negative logarithm of EC50 in molar, read-out: pEC50 (converted)): 7.94e-08 M
Eff (%) (human 5-HT2A receptors [3]; Table 3, 5-HT2A, percent response of reference 5-CT): 100%
EC50 (5-HT2B receptors): 50.1 nM
Eff (%) (5-HT2B receptors; Table 3, 5-HT2B, percent response of reference 5-CT): 100%
EC50 (human 5-HT2A receptors [4]; negative logarithm of EC50 in molar (M), HEK 293T cells, read-out: BRET2 pEC50 (converted)): 2e-07 M
BRET2 Eff % (human 5-HT2A receptors [4]; [9]): 98 ± 3%

Structure (SMILES): CCCN1C[C@H](CSC)C[C@@H]2c3cccc4[nH]cc(c34)C[C@H]21 [Pergolide]
Eff (%) (human D3 receptor): 100%
Eff (%) [5]: 100%
GTPγS Eff % (D2 receptors [6]): 94 ± 7%
R-SAT Eff(%) (D2 receptors [7]; Table 2, percent response of reference ligand pergolide, mean ± SEM): 100 ± 0%
Eff (%) (D2 receptors [7]; Table 3, D2, percent response of reference Pergolide): 100%
agonist profile in BRET2 assays at D2 receptors (D2 receptors [8]): partial agonists
BRET2 Eff % (D2 receptors [8]; percent response of reference ligand dopamine, mean ± SEM): 64 ± 3%

Structure (SMILES): Oc1cc2c(cc1O)C(c1ccccc1)CNCC2 (stereo not shown) [SKF 38393, reference compound]
Eff (%) (human D1 receptor): 100%

Structure (SMILES): C[N+](C)(C)CCOC(N)=O [Carbachol, reference compound]
Eff (%) (human M2 receptor): 100%
Eff (%) (human M4 receptor): 100%
Eff (%) (human M5 receptor): 100%

The next lines start with the values.

Eff (%) (human alpha1A receptor): 100%
Eff (%) (human alpha1B receptor): 100%
Structure (SMILES): CNC[C@H](O)c1cccc(O)c1 [Phenylephrine, reference compound]

Eff (%) (human alpha2C receptor): 100%
Structure (SMILES): Brc1c(NC2=NCCN2)ccc2nccnc12 [UK 14,306, reference compound]
